Assay results reported in publication PMC4987125 (Molecular microbiology, 2015).
Where no end group is shown, it is not given here.

Experiments:
[1] = test system: Rgg2/3 quorum-sensing pathway (Pshp3-lux); assay: Luminescence transcriptional reporter assay, Pshp3-lux; assay type: cell-based, Streptococcus pyogenes; settings: WT NZ131 Pshp3-lux, CDM with 1% mannose and 0.05% glucose; 500 nM RI-10, 500 nM L10A or 10 mM MgSO4
[2] = test system: PepO in intact cells, lysed cells or conditioned supernatants; assay: Activity-based screening for PepO localization; assay type: in vitro ADME, Streptococcus pyogenes; settings: 50 nM sSHP2-C8, intact cells, lysed cells or conditioned supernatants of ΔoppD shp2GGG shp3GGG pepO+ and pepO- cultures, 30 °C, 4 hours; read-out ΔpepO shp2GGGshp3GGG Pshp3-lux reporter

Row | Compound | effect on Pshp3-lux induction in mannose-induced wild-type reporter [1] | PepO-dependent degradation of SHP in cellular fractions [2]
1 | O=S(=O)([O-])[O-].[Mg+2] [Mg^2+, MgSO4] | unlike cultures treated with the inactive L10A variant or Mg^2+ | 
2 | DILIIVGG [sSHP2-C8] |  | found only in the cytoplasmic fraction
